In PubChem BioAssay AID1259407 (Chemical Carcinogenesis Research Information System (CCRIS), 2018):
The source made the active and inactive calls. No rule for the calls is given here.

Tested on: CCRIS mutagenicity, Ames/micronucleus/aberration tests
Assay: CCRIS mutagenicity studies
[1] = Test System: AMES SALMONELLA TYPHIMURIUM, Strain/Indicator: TA98, Metabolic Activation: NONE, Method: PREINCUBATION
[2] = Test System: AMES SALMONELLA TYPHIMURIUM, Strain/Indicator: TA98, Metabolic Activation: NONE, Method: STANDARD PLATE
[3] = Test System: AMES SALMONELLA TYPHIMURIUM, Strain/Indicator: TA98, Metabolic Activation: RAT, LIVER, S-9, AROCLOR 1254, Method: STANDARD PLATE
[4] = Test System: AMES SALMONELLA TYPHIMURIUM, Strain/Indicator: TA100, Metabolic Activation: NONE, Method: PREINCUBATION
[5] = Test System: AMES SALMONELLA TYPHIMURIUM, Strain/Indicator: TA100, Metabolic Activation: NONE, Method: STANDARD PLATE
[6] = Test System: AMES SALMONELLA TYPHIMURIUM, Strain/Indicator: TA100, Metabolic Activation: RAT, LIVER, S-9, AROCLOR 1254, Method: STANDARD PLATE
[7] = Test System: AMES SALMONELLA TYPHIMURIUM, Strain/Indicator: TA1535, Metabolic Activation: NONE, Method: PREINCUBATION
[8] = Test System: AMES SALMONELLA TYPHIMURIUM, Strain/Indicator: TA1535, Metabolic Activation: NONE, Method: STANDARD PLATE
[9] = Test System: AMES SALMONELLA TYPHIMURIUM, Strain/Indicator: TA1537, Metabolic Activation: NONE, Method: PREINCUBATION
[10] = Test System: AMES SALMONELLA TYPHIMURIUM, Strain/Indicator: TA1537, Metabolic Activation: NONE, Method: STANDARD PLATE

Compound: CN1C[C@H](C(=O)N[C@]2(C)O[C@@]3(O)[C@@H]4CCCN4C(=O)[C@H](Cc4ccccc4)N3C2=O)C=C2c3cccc4[nH]cc(c34)C[C@H]21
- mutagenic call (Test System: AMES SALMONELLA TYPHIMURIUM, Strain/Indicator: TA98, Metabolic Activation: HAMSTER, LIVER, S-9, AROCLOR 1254 (10%), Method: PREINCUBATION): inactive; negative
- mutagenic call (Test System: AMES SALMONELLA TYPHIMURIUM, Strain/Indicator: TA98, Metabolic Activation: HAMSTER, LIVER, S-9, AROCLOR 1254, Method: STANDARD PLATE): inactive; negative
- mutagenic call [1]: inactive; negative
- mutagenic call [2]: inactive; negative
- mutagenic call (Test System: AMES SALMONELLA TYPHIMURIUM, Strain/Indicator: TA98, Metabolic Activation: RAT, LIVER, S-9, AROCLOR 1254 (10%), Method: PREINCUBATION): inactive; negative
- mutagenic call [3]: inactive; negative
- mutagenic call (Test System: AMES SALMONELLA TYPHIMURIUM, Strain/Indicator: TA100, Metabolic Activation: HAMSTER, LIVER, S-9, AROCLOR 1254 (10%), Method: PREINCUBATION): inactive; negative
- mutagenic call (Test System: AMES SALMONELLA TYPHIMURIUM, Strain/Indicator: TA100, Metabolic Activation: HAMSTER, LIVER, S-9, AROCLOR 1254, Method: STANDARD PLATE): inactive; negative
- mutagenic call [4]: inactive; negative
- mutagenic call [5]: inactive; negative
- mutagenic call (Test System: AMES SALMONELLA TYPHIMURIUM, Strain/Indicator: TA100, Metabolic Activation: RAT, LIVER, S-9, AROCLOR 1254 (10%), Method: PREINCUBATION): inactive; negative
- mutagenic call [6]: inactive; negative
- mutagenic call (Test System: AMES SALMONELLA TYPHIMURIUM, Strain/Indicator: TA1535, Metabolic Activation: HAMSTER, LIVER, S-9, AROCLOR 1254 (10%), Method: PREINCUBATION): inactive; negative
- mutagenic call (Test System: AMES SALMONELLA TYPHIMURIUM, Strain/Indicator: TA1535, Metabolic Activation: HAMSTER, LIVER, S-9, AROCLOR 1254, Method: STANDARD PLATE): inactive; negative
- mutagenic call [7]: inactive; negative
- mutagenic call [8]: inactive; negative
- mutagenic call (Test System: AMES SALMONELLA TYPHIMURIUM, Strain/Indicator: TA1535, Metabolic Activation: RAT, LIVER, S-9, AROCLOR 1254 (10%), Method: PREINCUBATION): inactive; negative
- mutagenic call (Test System: AMES SALMONELLA TYPHIMURIUM, Strain/Indicator: TA1535, Metabolic Activation: RAT, LIVER, S-9, AROCLOR 1254, Method: STANDARD PLATE): inactive; negative
- mutagenic call (Test System: AMES SALMONELLA TYPHIMURIUM, Strain/Indicator: TA1537, Metabolic Activation: HAMSTER, LIVER, S-9, AROCLOR 1254 (10%), Method: PREINCUBATION): inactive; negative
- mutagenic call (Test System: AMES SALMONELLA TYPHIMURIUM, Strain/Indicator: TA1537, Metabolic Activation: HAMSTER, LIVER, S-9, AROCLOR 1254, Method: STANDARD PLATE): inactive; negative
- mutagenic call [9]: inactive; negative
- mutagenic call [10]: inactive; negative
- mutagenic call (Test System: AMES SALMONELLA TYPHIMURIUM, Strain/Indicator: TA1537, Metabolic Activation: RAT, LIVER, S-9, AROCLOR 1254 (10%), Method: PREINCUBATION): inactive; negative
- mutagenic call (Test System: AMES SALMONELLA TYPHIMURIUM, Strain/Indicator: TA1537, Metabolic Activation: RAT, LIVER, S-9, AROCLOR 1254, Method: STANDARD PLATE): inactive; negative
- mutagenic call (Test System: MOUSE LYMPHOMA, Strain/Indicator: L5178Y (TK+/TK-), Metabolic Activation: NONE, Method: SUSPENSION/PLATE): inactive; negative
- mutagenic call (Test System: MOUSE LYMPHOMA, Strain/Indicator: L5178Y (TK+/TK-), Metabolic Activation: RAT, LIVER, S-9, AROCLOR 1254, Method: SUSPENSION/PLATE): inactive; negative
- mutagenic call (Test System: Mouse lymphoma, Strain/Indicator: L5178Y (tk+/tk-), Metabolic Activation: None, Method: Suspension/plate): inactive; negative
- mutagenic call (Test System: Mouse lymphoma, Strain/Indicator: L5178Y (tk+/tk-), Metabolic Activation: Rat, Liver, S-9, Aroclor 1254, Method: Suspension/plate): inactive; negative

Compound: Cc1c(/C=N/OCc2ccc(Cl)cc2)c2cc([N+](=O)[O-])ccc2n1Cc1ccccc1
- mutagenic call [2]: inactive; negative
- mutagenic call (Test System: AMES SALMONELLA TYPHIMURIUM, Strain/Indicator: TA98, Metabolic Activation: RAT, LIVER, S-9, PHENOBARBITAL AND BETA-NAPHTHOFLAVONE, Method: STANDARD PLATE): inactive; negative
- mutagenic call [5]: inactive; negative
- mutagenic call (Test System: AMES SALMONELLA TYPHIMURIUM, Strain/Indicator: TA100, Metabolic Activation: RAT, LIVER, S-9, PHENOBARBITAL AND BETA-NAPHTHOFLAVONE, Method: STANDARD PLATE): inactive; negative

Compound: COc1ccc(CON(OC(C)=O)C(=O)c2ccccc2)cc1
- mutagenic call [5]: active; positive
- mutagenic call (Test System: AMES SALMONELLA TYPHIMURIUM, Strain/Indicator: TA100, Metabolic Activation: RAT, S-9, AROCLOR, Method: STANDARD PLATE): active; positive

Compound: N#Cc1cccc2cccnc12
- mutagenic call (Test System: AMES SALMONELLA TYPHIMURIUM, Strain/Indicator: TA100, Metabolic Activation: S-9, Method: PREINCUBATION): active; positive

Compound: Nc1ccc(CCc2ccc(N)cc2)cc1
- mutagenic call [2]: inactive; negative
- mutagenic call [3]: active; positive
- mutagenic call [5]: inactive; negative
- mutagenic call [6]: active; positive

Compound: CC[C@H](c1ccc(O)cc1)[C@@H](CC)c1ccc(O)cc1
- mutagenic call (End Point: IN VITRO CHROMOSOMAL ABERRATIONS, Test System: CHINESE HAMSTER CELL DON (22;XY), Metabolic Activation: NONE): active; positive (ploidy changes)
- mutagenic call [2]: inactive; negative
- mutagenic call (Test System: AMES SALMONELLA TYPHIMURIUM, Strain/Indicator: TA98, Metabolic Activation: RAT, LIVER, S-9, Method: STANDARD PLATE): inactive; negative
- mutagenic call [5]: inactive; negative
- mutagenic call (Test System: AMES SALMONELLA TYPHIMURIUM, Strain/Indicator: TA100, Metabolic Activation: RAT, LIVER, S-9, Method: STANDARD PLATE): inactive; negative
- mutagenic call [8]: inactive; negative; toxicity at 50 ug/plate
- mutagenic call (Test System: AMES SALMONELLA TYPHIMURIUM, Strain/Indicator: TA1535, Metabolic Activation: RAT, LIVER, S-9, Method: STANDARD PLATE): inactive; negative; toxicity at 100 ug/plate
- mutagenic call [10]: inactive; negative; toxicity at 100 ug/plate
- mutagenic call (Test System: AMES SALMONELLA TYPHIMURIUM, Strain/Indicator: TA1537, Metabolic Activation: RAT, LIVER, S-9, Method: STANDARD PLATE): inactive; negative
- mutagenic call (Test System: AMES SALMONELLA TYPHIMURIUM, Strain/Indicator: TA1538, Metabolic Activation: NONE, Method: STANDARD PLATE): inactive; negative
- mutagenic call (Test System: AMES SALMONELLA TYPHIMURIUM, Strain/Indicator: TA1538, Metabolic Activation: RAT, LIVER, S-9, Method: STANDARD PLATE): inactive; negative; toxicity at 100 ug/plate
- mutagenic call (Test System: UDS RAT HEPATOCYTES, Strain/Indicator: THY INCORP (18-20 HR), Metabolic Activation: NONE, Method: LIQUID SCINTILLATION COUNTING): inactive; negative

Compound: CC1(C)SSC[C@@H](C(=O)O)NC1=O
- mutagenic call [1]: inactive; negative
- mutagenic call [4]: inactive; negative
- mutagenic call [7]: inactive; negative
- mutagenic call [9]: inactive; negative
- mutagenic call (Test System: AMES SALMONELLA TYPHIMURIUM, Strain/Indicator: TA1538, Metabolic Activation: NONE, Method: PREINCUBATION): inactive; negative
- mutagenic call (Test System: E. COLI, Strain/Indicator: WP2, Metabolic Activation: NONE, Method: PREINCUBATION): inactive; negative
- mutagenic call (Test System: E. COLI, Strain/Indicator: WP2 UVRA, Metabolic Activation: NONE, Method: PREINCUBATION): inactive; negative

Compound: Cc1cc(Cc2ccc(N)c(C)c2)ccc1N
- mutagenic call [1]: inactive; negative
- mutagenic call (Test System: AMES SALMONELLA TYPHIMURIUM, Strain/Indicator: TA98, Metabolic Activation: RAT, LIVER, S-9, PCB, Method: PREINCUBATION): inactive; negative
- mutagenic call [4]: inactive; negative
- mutagenic call (Test System: AMES SALMONELLA TYPHIMURIUM, Strain/Indicator: TA100, Metabolic Activation: RAT, LIVER, S-9, PCB, Method: PREINCUBATION): inactive; negative

Compound: [N-]=[N+]=Nc1nc2ccccc2[nH]1
- mutagenic call [2]: active; positive
